# Measurements: patent US10501479B2, “Benzenesulfonyl-asymmetric ureas and medical uses thereof” (HELSINN HEALTHCARE SA, priority 2016, dated 2019)
# “And” between values parts separate entries of the source, which are not always exact repeats. Equal entries are not always repeated. Where two headings read alike, the source gives them in different places.
# Legend:
# [1] = Metabolic stability in human liver microsomes; type: in vitro ADME
# Summary of the method: (§1)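 First, microsomes and compound are preincubated 5 min at 37 °C in pH 7.4 phosphate buffer. Next, an NADPH regenerating system starts the reaction. Then aliquots are quenched cold at 10, 30 and 90 min, centrifuged and analysed by LC-MS/MS.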
# [2] = molecular target: T1, GHSR-1a (HEK293/GHSR1a cell line) (Homo sapiens, UniProt Q92847); experiment: Ghrelin agonist potency (EC50) with calcium FLIPR assay; type: cell-based
# T1 construct: expressed in transfected cells; host or cells: HEK293/GHSR1a cell line
# Summary of the method: (§2)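 The cells were plated a day ahead and loaded with a calcium-sensitive dye. Test compound was then added and incubated 15 min, followed by ghrelin. Antagonist potency was calculated from inhibition of the response to 10 nM ghrelin, and agonist potency from the calcium rise caused by compound alone.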
# [3] = Animal PK study in mouse via i.v., p.o. and s.c. administration; type: in vivo; details: for Vd / clearance / half-life: plasma; for clearance: read-out: PK CL i.v.
# Summary of the method: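 Plasma drug levels were measured by LC-MS/MS after acetonitrile precipitation, with blood drawn up to 24 h post-dose (from 0.083 h i.v./s.c., 0.25 h oral) in mice or rats. Animals received one dose by gavage in DMSO/methylcellulose, or by tail-vein or subcutaneous injection in DMSO/HP-β-cyclodextrin.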
# [4] = molecular target: T2, recombinant human ghrelin receptor (HEK293/GRLN) (Homo sapiens, UniProt Q92847); experiment: Ghrelin inverse agonist potency (EC50) with IP-1 (IP-One HTRF) assay; type: cell-based; details: IP-1 assay
# T2 construct: expressed in transfected cells
# Summary of the method: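 IP-1 accumulation was measured by HTRF (IP1-d2/Tb-cryptate, 620/665 nm read after 1 hour at room temperature) following 1 hour of compound treatment at 37° C. Cells were HEK293 stably expressing human ghrelin receptor, plated a day earlier on Matrigel. Inverse agonist potency was reported as EC50.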
# [5] = Plasma protein binding (PPB), mouse; type: in vitro ADME
# [6] = molecular target: T1, GHSR-1a (HEK293/GHSR1a cell line); experiment: Ghrelin antagonist potency (IC50) with calcium FLIPR assay, ghrelin 10 nM; type: cell-based
# Summary of the method: as §2
# [7] = Plasma protein binding (PPB), rat; type: in vitro ADME; details: read-out: PPB (R)
# [8] = Metabolic stability in mouse liver microsomes; type: in vitro ADME
# Summary of the method: as §1
# [9] = Plasma protein binding (PPB), dog; type: in vitro ADME; details: read-out: PPB (D) (converted)
# [10] = Plasma protein binding (PPB), human; type: in vitro ADME; details: read-out: PPB (H) (converted)
# [11] = Metabolic stability in rat liver microsomes; type: in vitro ADME
# Summary of the method: as §1
# [12] = Metabolic stability in dog liver microsomes; type: in vitro ADME
# Summary of the method: as §1
# [13] = Animal PK study in rat via i.v., p.o. and s.c. administration; type: in vivo; details: rat
# [14] = Plasma protein binding (PPB), human (H); type: in vitro ADME
# [15] = Plasma protein binding (PPB), rat (R); type: in vitro ADME
# [16] = HEK293/GHSR1a, read-out: Activity EC50/EMax: EC50 (ghrelin agonist potency)
# [17] = iv, 5 mg/kg, i.v., read-out: PK t1/2 i.v.
# [18] = po, 10 mg/kg, p.o., read-out: PK t1/2 p.o.
# [19] = HEK293/GRLN, read-out: Activity EC50 (ghrelin inverse agonist potency)
# [20] = ghrelin agonist potency, read-out: Activity EC50/EMax
# [21] = ghrelin inverse agonist potency, read-out: Activity EC50
# [22] = ghrelin antagonist potency, read-out: Activity IC50
# T1 sequence (Q92847 whole entry): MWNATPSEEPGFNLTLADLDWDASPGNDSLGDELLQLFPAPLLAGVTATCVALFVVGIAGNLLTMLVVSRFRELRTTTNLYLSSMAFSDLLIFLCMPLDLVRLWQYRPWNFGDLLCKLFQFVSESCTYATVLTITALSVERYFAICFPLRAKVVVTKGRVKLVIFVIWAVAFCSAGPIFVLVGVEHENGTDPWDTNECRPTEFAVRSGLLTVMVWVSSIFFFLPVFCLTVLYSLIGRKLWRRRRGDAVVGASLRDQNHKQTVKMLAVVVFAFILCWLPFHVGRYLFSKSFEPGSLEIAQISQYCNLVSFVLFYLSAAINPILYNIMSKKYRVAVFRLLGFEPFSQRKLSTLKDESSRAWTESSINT
# T2 sequence (Q92847 whole entry): as above
SMILES,Metabolic Stability Study H = human [1],"EC50 [2, 16]",PK F [3],PK CL p.o. ([3]; p.o.),PK Vd p.o. ([3]; p.o.),"Vd ([3]; iv, 5 mg/kg)","clearance ([3]; iv, 5 mg/kg, i.v.)","half-life [3, 17]","half-life [3, 18]","EC50 [4, 19]",fraction unbound [5],fraction unbound [7],Metabolic Stability Study M = mouse [8],fraction unbound [10],"EC50 [2, 20]","EC50 [4, 21]",fraction unbound [14],fraction unbound [15],"IC50 [6, 22]",other results
"CC(NC(=O)Nc1ccc(S(=O)(=O)Nc2ccc3c(c2)CCN(C)C3)cc1)c1cccc(Cl)c1Cl (stereo not shown) [H1333, 4-(3-(1-(2,3-dichlorophenyl)ethyl)ureido)-N-(2-methyl-1,2,3,4-tetrahydroisoquinolin-6-yl)benzenesulfonamide]",47.2 µL/min/mg,> 30000 nM,2.08%,1400 mL/min/kg,170 L/kg,3.26 L/kg,29.7 mL/min/kg,1.27 h,1.4 h,1.3 nM,0.0006,0.001,54 µL/min/mg,0.0011,–,–,–,–,–,"IC50 ([6]; HEK293/GHSR1a, ghrelin 10 nM, read-out: Activity IC50 (ghrelin antagonist potency)): 2.24 nM; fraction unbound [9]: 0.0015"
"COc1cc(S(=O)(=O)Cc2ccc3c(c2)CCNC3)ccc1NC(=O)NC(C)c1cccc(Cl)c1Cl.Cl (stereo not shown) [H1415, 1-(1-(2,3-dichlorophenyl)ethyl)-3-(2-methoxy-4-(((1,2,3,4-tetrahydroisoquinolin-6-yl)methyl)sulfonyl)phenyl)urea]",< 10 µL/min/mg,> 30000 nM,1.12%,1240 mL/min/kg,326.9 L/kg,1.72 L/kg,17.2 mL/min/kg,1.16 h,3.04 h,0.573 nM and 0.4 nM,0.0007,0.0023,12.8 µL/min/mg,0.0015,–,–,–,–,–,"Metabolic Stability Study R = rat [11]: 28.3 µL/min/mg; Metabolic Stability Study D = dog [12]: 10.5 µL/min/mg; clearance ([13]; plasma, iv, 5 mg/kg, i.v., read-out: PK CL i.v. (R)): 35.3 mL/min/kg; Vd ([13]; plasma, iv, 5 mg/kg, i.v., read-out: PK Vd i.v. (R)): 39.7 L/kg; half-life ([13]; plasma, iv, 5 mg/kg, i.v., read-out: PK t1/2 i.v. (R)): 13 h; PK F (R) [13]: 8.9%; PK CL i.p. (R) ([13]; i.p.): 46 mL/min/kg; PK Vd i.p. (R) ([13]; i.p.): 61.91 L/kg; PK t1/2 i.p. (R) ([13]; i.p.): 17/23"
"CC(NC(=O)Nc1ccc(S(=O)(=O)Cc2ccc3c(c2)CNC3)cc1C(=O)O)c1ccccc1.Cl (stereo not shown) [H1486, 5-((isoindolin-5-ylmethyl)sulfonyl)-2-(3-(1-phenylethyl)ureido)benzoic acid]",H = <10 M = <10 μL/min/mg,–,–,–,–,–,–,–,–,–,–,–,H = <10 M = <10 μL/min/mg,–,> 30000 nM,4.9 nM,0.0519,0.0265,9.21 nM,–
"COc1cc(S(=O)(=O)Cc2ccc3c(c2)CCNC3)ccc1NC(=O)N(O)C(C)c1cccc(Cl)c1Cl (stereo not shown) [H1497, 1-(1-(2,3-dichlorophenyl)ethyl)-1-hydroxy-3-(2-methoxy-4-(((1,2,3,4-tetrahydroisoquinolin-6-yl)methyl)sulfonyl)phenyl)urea]",H = <10 μL/min/mg,–,–,–,–,–,–,–,–,–,–,–,–,–,> 30000 nM,3.3 nM,0.0016,0.002,2.81 nM,–
"COc1cc(S(=O)(=O)Cc2ccc3c(c2)CCNC3)ccc1NC(=O)N(O)C(C)c1ccccc1 (stereo not shown) [H1498, 1-hydroxy-3-(2-methoxy-4-(((1,2,3,4-tetrahydroisoquinolin-6-yl)methyl)sulfonyl)phenyl)-1-(1-phenylethyl)urea]",H = 9.9 μL/min/mg,–,–,–,–,–,–,–,–,–,–,–,–,–,> 30000 nM,7.2 nM,0.0123,0.0294,24.8 nM,–
